In patent US12077503B2, “Substituted cyclic amides and their use as herbicides” (FMC CORPORATION, priority 2015, dated 2024):

Key:
Type in all cases: in vivo
[1] = system: ryegrass, Italian (Italian ryegrass, Lolium multiflorum); assay: Test A postemergence; settings: Lolium multiflorum, post-emergence, 240 h, Postemergence, read-out: Ryegrass, Italian plant response rating (0 to 100 scale); for pest or weed control at 125 g/ha: 125 g ai/ha, visual rating about 10 d after treatment; for pest or weed control at 31 g/ha: 31 g ai/ha, 0 is no effect, 100 is complete control
Procedure, shortened: (§1)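 Treatment is preemergence as a directed soil spray after planting, or postemergence at the one- to two-leaf stage, with test chemical in a non-phytotoxic solvent mixture plus surfactant. Plants stay in the greenhouse about 10 d before visual injury scoring on a 0 to 100 scale versus untreated controls.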

[2] = system: Galium (catchweed bedstraw, Galium aparine); assay: Test A postemergence; settings: Galium, post-emergence, 240 h, Postemergence, read-out: Galium plant response rating (0 to 100 scale); for pest or weed control at 125 g/ha: 125 g ai/ha, visual rating about 10 d after treatment; for pest or weed control at 31 g/ha: 31 g ai/ha, 0 is no effect, 100 is complete control
Procedure, shortened: as §1

corn (Zea mays) = assay: Test A postemergence; settings: Zea mays, post-emergence, 240 h, Postemergence, read-out: Corn plant response rating (0 to 100 scale); for plant injury at 125 g/ha: 125 g ai/ha, visual rating about 10 d after treatment; for plant injury at 31 g/ha: 31 g ai/ha, 0 is no effect, 100 is complete control
Procedure, shortened: as §1

[3] = system: barnyardgrass (Echinochloa crus-galli); assay: Test A postemergence; settings: Echinochloa crus-galli, post-emergence, 240 h, Postemergence; for pest or weed control at 125 g/ha: 125 g ai/ha, visual rating about 10 d after treatment, read-out: Barnyardgrass plant response rating (0 to 100 scale, 0 no effect, 100 complete control); for pest or weed control at 31 g/ha: 31 g ai/ha, 0 is no effect, 100 is complete control, read-out: Barnyardgrass plant response rating (0 to 100 scale)
Procedure, shortened: as §1

[4] = system: ragweed (common ragweed, Ambrosia elatior); assay: Test A postemergence; settings: Ambrosia artemisiifolia, post-emergence, 240 h, Postemergence, read-out: Ragweed plant response rating (0 to 100 scale); for pest or weed control at 125 g/ha: 125 g ai/ha, visual rating about 10 d after treatment; for pest or weed control at 31 g/ha: 31 g ai/ha, 0 is no effect, 100 is complete control
Procedure, shortened: as §1

Kochia (Kochia scoparia) [5] = assay: Test A postemergence; settings: Bassia scoparia, post-emergence, 240 h, Postemergence, read-out: Kochia plant response rating (0 to 100 scale); for pest or weed control at 125 g/ha: 125 g ai/ha, visual rating about 10 d after treatment; for pest or weed control at 31 g/ha: 31 g ai/ha, 0 is no effect, 100 is complete control
Procedure, shortened: as §1

[6] = system: wheat (Triticum aestivum); assay: Test A postemergence; settings: Triticum aestivum, post-emergence, 240 h, Postemergence, read-out: Wheat plant response rating (0 to 100 scale); for plant injury at 125 g/ha: 125 g ai/ha, visual rating about 10 d after treatment; for plant injury at 31 g/ha: 31 g ai/ha, 0 is no effect, 100 is complete control
Procedure, shortened: as §1

[7] = system: pigweed (Amaranthus retroflexus); assay: Test A postemergence; settings: Amaranthus retroflexus, post-emergence, 240 h, Postemergence, read-out: Pigweed plant response rating (0 to 100 scale); for pest or weed control at 125 g/ha: 125 g ai/ha, visual rating about 10 d after treatment; for pest or weed control at 31 g/ha: 31 g ai/ha, 0 is no effect, 100 is complete control
Procedure, shortened: as §1

[8] = system: blackgrass (Alopecurus myosuroides); assay: Test A postemergence; settings: Alopecurus myosuroides, post-emergence, 240 h, Postemergence, read-out: Blackgrass plant response rating (0 to 100 scale); for pest or weed control at 125 g/ha: 125 g ai/ha, visual rating about 10 d after treatment; for pest or weed control at 31 g/ha: 31 g ai/ha, 0 is no effect, 100 is complete control
Procedure, shortened: as §1

[9] = system: giant foxtail (Setaria faberii); assay: Test A postemergence; settings: Setaria faberi, post-emergence, 240 h, Postemergence, read-out: Foxtail, Giant plant response rating (0 to 100 scale); for pest or weed control at 125 g/ha: 125 g ai/ha, visual rating about 10 d after treatment; for pest or weed control at 31 g/ha: 31 g ai/ha, 0 is no effect, 100 is complete control
Procedure, shortened: as §1

[10] = system: ducksalad (Heteranthera limosa); assay: Test B flooded paddy test; settings: Heteranthera limosa, 250 g ai/ha, Flood; 0 to 100 scale where 0 is no effect and 100 is complete control; read-out: Ducksalad plant response rating
Procedure, shortened: (§2)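 Rating scale 0–100 (visual, vs untreated controls) after a 13–15 d greenhouse period; application to the flood layer, 3 cm above soil and maintained; plants at 2-leaf stage when treated.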

[11] = system: barnyardgrass (Echinochloa crus-galli); assay: Test B flooded paddy test; settings: Echinochloa crus-galli, 250 g ai/ha, Flood; 0 to 100 scale where 0 is no effect and 100 is complete control; read-out: Barnyardgrass plant response rating
Procedure, shortened: as §2

[12] = system: sedge, umbrella (small-flower umbrella sedge, Cyperus difformis); assay: Test B flooded paddy test; settings: Cyperus difformis, 250 g ai/ha, Flood; 0 to 100 scale where 0 is no effect and 100 is complete control; read-out: Sedge, Umbrella plant response rating
Procedure, shortened: as §2

rice (Oryra sativa) = assay: Test B flooded paddy test; settings: Oryza sativa, 250 g ai/ha, Flood; 0 to 100 scale where 0 is no effect and 100 is complete control; read-out: Rice plant response rating
Procedure, shortened: as §2

[13] = system: ryegrass, Italian (Italian ryegrass, Lolium multiflorum); assay: Test A preemergence; settings: Lolium multiflorum, pre-emergence, 240 h, 0 to 100 scale where 0 is no effect and 100 is complete control, read-out: Ryegrass, Italian plant response rating; for pest or weed control at 31 g/ha: 31 g ai/ha, Preemergence; for pest or weed control at 125 g/ha: 125 g ai/ha, preemergence, visual injury rating, approximately 10 d
Procedure, shortened: as §1

[14] = system: barnyardgrass (Echinochloa crus-galli); assay: Test A preemergence; settings: Echinochloa crus-galli, pre-emergence, 240 h, 0 to 100 scale where 0 is no effect and 100 is complete control, read-out: Barnyardgrass plant response rating; for pest or weed control at 31 g/ha: 31 g ai/ha, Preemergence; for pest or weed control at 125 g/ha: 125 g ai/ha, preemergence, visual injury rating, approximately 10 d
Procedure, shortened: as §1

[15] = system: ragweed (common ragweed, Ambrosia elatior); assay: Test A preemergence; settings: Ambrosia artemisiifolia, pre-emergence, 240 h, 0 to 100 scale where 0 is no effect and 100 is complete control, read-out: Ragweed plant response rating; for pest or weed control at 31 g/ha: 31 g ai/ha, Preemergence; for pest or weed control at 125 g/ha: 125 g ai/ha, preemergence, visual injury rating, approximately 10 d
Procedure, shortened: as §1

Kochia (Kochia scoparia) [16] = assay: Test A preemergence; settings: Bassia scoparia, pre-emergence, 240 h, 0 to 100 scale where 0 is no effect and 100 is complete control, read-out: Kochia plant response rating; for pest or weed control at 31 g/ha: 31 g ai/ha, Preemergence; for pest or weed control at 125 g/ha: 125 g ai/ha, preemergence, visual injury rating, approximately 10 d
Procedure, shortened: as §1

[17] = system: pigweed (Amaranthus retroflexus); assay: Test A preemergence; settings: Amaranthus retroflexus, pre-emergence, 240 h, 0 to 100 scale where 0 is no effect and 100 is complete control, read-out: Pigweed plant response rating; for pest or weed control at 31 g/ha: 31 g ai/ha, Preemergence; for pest or weed control at 125 g/ha: 125 g ai/ha, preemergence, visual injury rating, approximately 10 d
[18] = system: giant foxtail (Setaria faberii); assay: Test A preemergence; settings: Setaria faberi, pre-emergence, 240 h, 0 to 100 scale where 0 is no effect and 100 is complete control, read-out: Foxtail, Giant plant response rating; for pest or weed control at 31 g/ha: 31 g ai/ha, Preemergence; for pest or weed control at 125 g/ha: 125 g ai/ha, preemergence, visual injury rating, approximately 10 d
Procedure, shortened: as §1

Compound | pest or weed control at 125 g/ha [1] | pest or weed control at 31 g/ha [1] | pest or weed control at 125 g/ha [2] | pest or weed control at 31 g/ha [2] | plant injury at 125 g/ha (corn (Zea mays)) | plant injury at 31 g/ha (corn (Zea mays)) | pest or weed control at 125 g/ha [3] | pest or weed control at 31 g/ha [3] | pest or weed control at 125 g/ha [4] | pest or weed control at 31 g/ha [4] | pest or weed control at 125 g/ha (Kochia (Kochia scoparia) [5]) | pest or weed control at 31 g/ha (Kochia (Kochia scoparia) [5]) | plant injury at 125 g/ha [6] | plant injury at 31 g/ha [6] | pest or weed control at 125 g/ha [7] | pest or weed control at 31 g/ha [7] | pest or weed control at 125 g/ha [8] | pest or weed control at 31 g/ha [8] | pest or weed control at 125 g/ha [9] | pest or weed control at 31 g/ha [9] | other results
CN1C[C@H](c2ccc(C(F)(F)F)cc2)[C@@H](C(=O)Nc2ccccc2-n2cncn2)C1=O [Compound 1288] | 0% | 0% | 0% | 0% | 0% | 0% | 0% | 0% | 0% | 0% | 0% | 0% | 0% | 0% | 0% | 0% | 0% | 0% | 0% | 0% | pest or weed control at 250 g/ha [10]: 0%; pest or weed control at 250 g/ha [11]: 0%; pest or weed control at 250 g/ha [12]: 0%; pest or weed control at 250 g/ha (rice (Oryra sativa)): 0%; pest or weed control at 31 g/ha [13]: 0%; pest or weed control at 125 g/ha [13]: 0%; pest or weed control at 31 g/ha [14]: 0%; pest or weed control at 125 g/ha [14]: 0%; pest or weed control at 31 g/ha [15]: 0%; pest or weed control at 125 g/ha [15]: 0%; pest or weed control at 31 g/ha (Kochia (Kochia scoparia) [16]): 0%; pest or weed control at 125 g/ha (Kochia (Kochia scoparia) [16]): 0%; pest or weed control at 31 g/ha [17]: 0%; pest or weed control at 125 g/ha [17]: 0%; pest or weed control at 31 g/ha [18]: 0%; pest or weed control at 125 g/ha [18]: 0%
CN1C[C@H](c2cccc(C(F)(F)F)c2)[C@@H](C(=O)Nc2ccccc2-n2cncn2)C1=O [Compound 1289] | 0% | 0% | 0% | 0% | 0% | 0% | 0% | 0% | 0% | 0% | 0% | 0% | 0% | 0% | 0% | 0% | 0% | 0% | 0% | 0% | pest or weed control at 250 g/ha [10]: 0%; pest or weed control at 250 g/ha [11]: 0%; pest or weed control at 250 g/ha [12]: 0%; pest or weed control at 250 g/ha (rice (Oryra sativa)): 0%; pest or weed control at 31 g/ha [13]: 0%; pest or weed control at 125 g/ha [13]: 0%; pest or weed control at 31 g/ha [14]: 20%; pest or weed control at 125 g/ha [14]: 30%; pest or weed control at 31 g/ha [15]: 0%; pest or weed control at 125 g/ha [15]: 0%; pest or weed control at 31 g/ha (Kochia (Kochia scoparia) [16]): 0%; pest or weed control at 125 g/ha (Kochia (Kochia scoparia) [16]): 0%; pest or weed control at 31 g/ha [17]: 0%; pest or weed control at 125 g/ha [17]: 0%; pest or weed control at 31 g/ha [18]: 50%; pest or weed control at 125 g/ha [18]: 50%
